Reference: ChEMBL document CHEMBL1201862, “PubChem BioAssay data set” (2004)
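1) Cells in 96-well plates. 2) Compound, 48 h, 5 concentrations. 3) Linear interpolation between surrounding doses. 4) Unreached endpoint = highest concentration. GI50 is the concentration that inhibits growth by half.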 Activity calls are given as the source filed them. Cut-off read from the data, not from the text of the source: active = GI50 up to about 1.1 µM and inactive = higher.

What was measured:
Experiment in all cases: NCI anticancer screen, dose series, 48 h
[1] = tested on: KM12
[2] = tested on: SK-MEL-5
[3] = tested on: OVCAR-4
[4] = tested on: SF-268
[5] = tested on: SNB-75
[6] = tested on: SK-MEL-2
[7] = tested on: T47D
[8] = tested on: SK-MEL-28
[9] = tested on: HCT-116
[10] = tested on: CAKI-1
[11] = tested on: EKVX
[12] = tested on: DU-145
[13] = tested on: 786-0
[14] = tested on: UACC-62
[15] = tested on: NCI/ADR-RES
[16] = tested on: MOLT-4
[17] = tested on: HOP-92
[18] = tested on: NCI-H226
[19] = tested on: SNB-19

Row | SMILES | GI50 [1] | GI50 [2] | GI50 [3] | GI50 [4] | GI50 [5] | GI50 [6] | GI50 [7] | GI50 [8] | GI50 [9] | GI50 [10] | GI50 [11] | GI50 [12] | GI50 [13] | GI50 [14] | GI50 [15] | GI50 [16] | GI50 [17] | GI50 [18] | GI50 [19]
1 | CC(C)(N)CO[C@H]1C[C@H]2CC[C@@]1(C)C2(C)C | 18.1 µM (inactive) | 18.2 µM (inactive) | 23.1 µM (inactive) | 44.9 µM (inactive) | 14.2 µM (inactive) | 18.5 µM (inactive) | 16 µM (inactive) | 12.3 µM (inactive) | 15.9 µM (inactive) | 20.2 µM (inactive) | 28.3 µM (inactive) | 25.9 µM (inactive) | 16.2 µM (inactive) | 18.2 µM (inactive) | 32.4 µM (inactive) | 26.3 µM (inactive) | 14.2 µM (inactive) | 24.7 µM (inactive) | 24.8 µM (inactive)
2 | CC(C)(C)N/N=C(\C(=O)Nc1ccc([N+](=O)[O-])cc1[N+](=O)[O-])c1nc2ccc([N+](=O)[O-])cc2nc1O | 34.4 µM (inactive) | 13.6 µM (inactive) | 33.3 µM (inactive) | > 100 µM (inactive) | > 100 µM (inactive) | > 100 µM (inactive) | 36.3 µM (inactive) | > 100 µM (inactive) | 68.5 µM (inactive) | > 100 µM (inactive) | > 100 µM (inactive) | > 100 µM (inactive) | > 100 µM (inactive) | > 100 µM (inactive) | > 100 µM (inactive) | 35.2 µM (inactive) | > 100 µM (inactive) | 23.7 µM (inactive) | > 100 µM (inactive)
3 | COC1=CC(=O)C2=C(C1=O)[C@H]1CC[C@]3(C)C(=O)CC[C@H]3[C@@H]1CC2 | 36.8 µM (inactive) | 18.5 µM (inactive) | 15.8 µM (inactive) | 21.5 µM (inactive) | > 100 µM (inactive) | 18.7 µM (inactive) | 22.8 µM (inactive) | 78 µM (inactive) | 18.5 µM (inactive) | 25.8 µM (inactive) | 16.7 µM (inactive) | 25.3 µM (inactive) | 24.1 µM (inactive) | 30.1 µM (inactive) | 20.1 µM (inactive) | 4.31 µM (inactive) | 19.8 µM (inactive) | 22.1 µM (inactive) | > 100 µM (inactive)
4 | O=C1Nc2ccccc2/C1=N\c1cccc2ncccc12 | 95.1 µM (inactive) | 67 µM (inactive) | 68.9 µM (inactive) | 67.1 µM (inactive) | 94.8 µM (inactive) | > 100 µM (inactive) | > 100 µM (inactive) | > 100 µM (inactive) | 58.7 µM (inactive) | > 100 µM (inactive) | 19.1 µM (inactive) | > 100 µM (inactive) | > 100 µM (inactive) | > 100 µM (inactive) | > 100 µM (inactive) | 30 µM (inactive) | 42.5 µM (inactive) | > 100 µM (inactive) | > 100 µM (inactive)
5 | C=C1C(=O)O[C@@H]2C[C@@H](C)[C@@H]3C=CC(=O)[C@@]3(C)[C@@H](OC(=O)CCCC(=O)O[C@H]3[C@@H]4C(=C)C(=O)O[C@@H]4C[C@@H](C)[C@@H]4C=CC(=O)[C@]43C)[C@H]12 | 0.231 µM (active) | 0.134 µM (active) | 0.0455 µM (active) | 0.0693 µM (active) | 0.113 µM (active) | 0.152 µM (active) | 0.0214 µM (active) | 0.0495 µM (active) | 0.0143 µM (active) | 0.0323 µM (active) | 0.0875 µM (active) | 0.28 µM (active) | 0.0171 µM (active) | 0.0565 µM (active) | 0.396 µM (active) | < 0.01 µM (active) | 0.034 µM (active) | 0.505 µM (active) | 1.05 µM (active)
6 | CC(C)(C)OC(=O)NC1CC2(C=C(Br)C(=O)C(Br)=C2)OC1=O (stereo not given) | 20.9 µM (inactive) | 16.4 µM (inactive) | 9.84 µM (inactive) | 17.4 µM (inactive) | 21.5 µM (inactive) | 16 µM (inactive) | 0.536 µM (active) | 21.1 µM (inactive) | 3.28 µM (inactive) | 3.48 µM (inactive) | 12.9 µM (inactive) | 13 µM (inactive) | 2.72 µM (inactive) | 17.6 µM (inactive) | 14.8 µM (inactive) | 0.401 µM (active) | 12.5 µM (inactive) | 18.1 µM (inactive) | 20.7 µM (inactive)
7 | CO[C@H]1O[C@@H]2CO[C@@H](c3ccccc3)O[C@H]2[C@@H]2CC=CCC[C@]12O | 65.3 µM (inactive) | 67.1 µM (inactive) | 57.3 µM (inactive) | 21.8 µM (inactive) | > 100 µM (inactive) | 65.5 µM (inactive) | 94 µM (inactive) | > 100 µM (inactive) | 30.1 µM (inactive) | > 100 µM (inactive) | 36.8 µM (inactive) | > 100 µM (inactive) | 61.2 µM (inactive) | 63.4 µM (inactive) | 44.4 µM (inactive) | 25.1 µM (inactive) | 49.8 µM (inactive) | > 100 µM (inactive) | > 100 µM (inactive)
8 | O=C(O)/C=C/C=C/c1ccc2c(c1)OCO2 [PIPERIC ACID] | > 100 µM (inactive) | 94.4 µM (inactive) | > 100 µM (inactive) | > 100 µM (inactive) | 36.6 µM (inactive) | > 100 µM (inactive) | > 100 µM (inactive) | > 100 µM (inactive) | > 100 µM (inactive) | > 100 µM (inactive) | > 100 µM (inactive) | > 100 µM (inactive) | > 100 µM (inactive) | > 100 µM (inactive) | > 100 µM (inactive) | > 100 µM (inactive) | > 100 µM (inactive) | > 100 µM (inactive) | > 100 µM (inactive)
9 | N=C(N)N/N=C/c1c(-c2ccc([N+](=O)[O-])cc2)nc2n1CCS2 | 4.84 µM (inactive) | 16.1 µM (inactive) | 7.85 µM (inactive) | 9.55 µM (inactive) | 6.04 µM (inactive) | 7.35 µM (inactive) | 5.13 µM (inactive) | 17.3 µM (inactive) | 7.87 µM (inactive) | 17.5 µM (inactive) | 18.3 µM (inactive) | 14.6 µM (inactive) | 6.67 µM (inactive) | 16.7 µM (inactive) | > 72.4 µM (inactive) | 3.24 µM (inactive) | 18.4 µM (inactive) | 20.3 µM (inactive) | 3.54 µM (inactive)
10 | OCCN(CCO)c1ccc2c(C(F)(F)F)cc(C(F)(F)F)nc2n1 | > 100 µM (inactive) | 95.7 µM (inactive) | > 100 µM (inactive) | > 100 µM (inactive) | > 100 µM (inactive) | > 100 µM (inactive) | > 100 µM (inactive) | > 100 µM (inactive) | > 100 µM (inactive) | > 100 µM (inactive) | > 100 µM (inactive) | > 100 µM (inactive) | > 100 µM (inactive) | > 100 µM (inactive) | > 80.4 µM (inactive) | > 100 µM (inactive) | > 100 µM (inactive) | > 100 µM (inactive) | > 100 µM (inactive)
